Tested on: hESC-derived hippocampal neurons
Assay: Whole cell patch clamp of hippocampal neurons from dispersion culture of hESC-derived hippocampal tissue (sEPSC)
Assay type: cell-based, human
Conditions: DNQX 10 μM; voltage held at −60 mV; day 53 after dispersion
Method: By a method similar to that in Example 7-1, continuous hippocampal tissues were subjected to dispersion culture. In this experiment, flat plane culture was performed by seeding on a glass or plastic dish, slide and the like. For culture, a glass or plastic surface was coated with poly-D-Lysine (100 μg/ml) at 37° C. for 3 hr, and Laminin 20 μg/ml/Fibronectin 8 μg/ml overnight at 37° C.
The culture medium used for day 1-2 of dispersion was Neurobasal medium (Gibco/Invitrogen) added with 2% B27 supplement without vitamin A (Gibco/Invitrogen), 2 mM L-glutamine, 1% FBS, 20 ng/ml BDNF, 20 ng/ml NT-3, and 10 μM Y-27632. From day 3 of culture, Neurobasal medium (Gibco/Invitrogen) added with 2% B27 supplement without vitamin A (Gibco/Invitrogen), 2 mM L-glutamine, 10% FBS, BDNF 20 ng/ml, and NT-3 20 ng/ml was used and a half amount of the medium was exchanged every three days. […] Also, the cells obtained by dispersion culture by the same method were electrophysiologically analyzed by the Patch clamp technique. […] For sEPSC, time-course electric current was measured when the voltage was maintained at −60 mV, and the medicament used was DNQX (sigma, D0540) at a final concentration of 10 μM. As the action potential, the membrane potential upon […] stimulation was measured.

Structure (SMILES): O=[N+]([O-])c1cc2nc(O)c(O)nc2cc1[N+](=O)[O-] [DNQX]
- spontaneous excitatory postsynaptic current (sEPSC): inhibited
